The values that follow come from patent US11897925B2, “Treatment of homologous recombination deficient cancers” (Sinai Health System, priority 2020, dated 2024).

The test system of test [1] is DLD1 BRCA2−/− cells. Kind of test: Micronuclei (MNi) assay after B6L induction. Type of test: cell-based, human. Particulars: BRCA2−/− cells held in G2 with RO-3306 prior to release in mitosis. The method, then:
For TOPBP1 rescue experiments, DLD1 wild-type and BRCA2^−/− cells stably expressing 2×HA-TOPBP1 were generated by viral transduction and selection with blasticidin (7.5 μg/mL for parental cells, 10 μg/mL for BRCA2^−/− cells). 3 days after transduction with sgRNA viral particles (as described in the clonogenic survival assays), cells were seeded in a 96-well plate (1,500 for wild-type cells; 4,000 for BRCA2^−/− cells) and cultured for 4 additional days. For inducible B6L expression experiments, DLD1 and MDA-MB-436 cells were seeded in a 96-well plate (1,500 for DLD1 wild-type cells; 4,000 for DLD1 BRCA2^−/− cells; 14,000 for MDA-MB-436) and cultured for up to 4 days in the presence of Aqua-Shield-1.
For detection of micronuclei, cells were fixed with 2% PFA, washed 3 times with PBS, permeabilized with 0.3% Triton X-100 in PBS for 5 min, washed 3 times with PBS, incubated for 1 h with PBS+DAPI (0.5 μg/mL). Alternatively, cells were stained for immunofluorescence (CENPA detection). After the last wash with PBS, images were acquired on an IN Cell Analyzer 6000 automated microscope (GE Life Sciences) with a 40× objective. Micronuclei were automatically detected and counted using the Columbus analysis tool (PerkinElmer).

In test [2] the test system is U2OS cells. Kind of test: CIP2A/TOPBP1 mitotic foci and filaments after aphidicolin. Type of test: cell-based, human. As to conditions: 400 nM aphidicolin, 16 h; wild type and MDC1−/− U2OS; mostly independent of MDC1. The method, then:
For the experiments relating to the mitotic structures labelled by CIP2A and TOPBP1, U2OS wild-type and MDC1^-/- cell lines were seeded on coverslips and either treated with 400 nM aphidicolin for 16 h (overnight) or left untreated. In order to perform immunofluorescence, cells were quickly washed once with cold PBS and then fixed with ice-cold methanol for 10 min on ice. Methanol was discarded and cells were washed two times with PBS before incubation with blocking buffer (10% FBS in PBS) for at least 1 h. Incubation with primary antibodies diluted in 5% FBS-PBS was performed overnight at 4° C. in a humidity chamber. Coverslips were then washed 3×10 min with blocking buffer and incubated with AlexaFluor-conjugated secondary antibodies for 1 h at room temperature in the dark. After washing 3×10 min with PBS, coverslips were mounted on glass microscopy slides (Thermo Scientific, 630-1985, dimensions […]×[…] mm) with […] mounting medium containing 0.5 μg/mL (DAPI) (Vector Laboratories, H-1200). Confocal images were acquired using a Leica SP8 inverse confocal laser scanning microscope with a 63×, 1.4-NA Plan-Apochromat oil-immersion objective. […] Images were recorded using optimal pixel size based on Nyquist criterion. […] Quantification of the foci was performed manually based on maximum intensity projections. […]

`O=C1NC(=NCc2cccs2)S/C1=C\c1ccc2ncccc2c1` [RO-3306]: the “B6L-induced micronucleation after holding cells in G2” value in test [1] is listed as “completely suppressed B6L-induced micronucleation”. On to `C[C@@]1(CO)[C@H](O)CC[C@@]2(C)[C@H]1CC[C@H]1C[C@@H]3C[C@@]12CC[C@]3(O)CO` [aphidicolin], for which the “frequency of CIP2A-TOPBP1 foci and filaments in mitotic cells” value in test [2] was “increased”.
